Results as given in patent publication US9809574B2, “Isoindoline or isoquinoline compounds, a process for their preparation and pharmaceutical compositions containing them” (LES LABORATOIRES SERVIER, priority 2013, dated 2017).

Legend:
Bcl-2 protein = Bcl-2 protein (histag-Bcl-2, UniProtKB P10415) (Homo sapiens (Human), UniProt P10415); assay: Inhibition of Bcl-2 by the fluorescence polarisation technique; assay type: binding; settings: fluorescence polarisation test; incubation for 2 hours; read-out: IC50 (nM) Bcl-2 FP
Description: For partial inhibitors, the percentage fluorescence polarisation inhibition for a given concentration of the test compound is indicated.

[1] = test system: RS4; 11 leukaemia cell line; assay: In vitro cytotoxicity, Microculture Tetrazolium Assay (MTT); assay type: cell-based; settings: Homo sapiens, 11 cells exposed for 48 hours
Description: The cytotoxicity studies were carried out on the RS4; 11 leukaemia cell line and on H146 small Cell Lung Carcinoma cell line. The cells are distributed onto microplates and exposed to the test compounds for 48 hours. The cell viability is then quantified by a colorimetric assay, the Microculture Tetrazolium Assay (Cancer Res., 1987, 47, 939-942).

Chain of Bcl-2 protein (P10415 whole entry): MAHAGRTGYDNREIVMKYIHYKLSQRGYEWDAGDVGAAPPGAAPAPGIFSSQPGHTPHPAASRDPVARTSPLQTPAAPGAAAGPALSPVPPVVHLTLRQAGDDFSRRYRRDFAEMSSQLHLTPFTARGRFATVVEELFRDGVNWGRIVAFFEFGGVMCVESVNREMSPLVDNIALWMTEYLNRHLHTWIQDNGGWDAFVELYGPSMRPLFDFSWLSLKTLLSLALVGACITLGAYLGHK

| Compound | IC50 (Bcl-2 protein) | IC50 [1] |
| --- | --- | --- |
| C[C@@H]1Cc2ccccc2CN1C(=O)c1cc2c(cc1-c1cc(C(=O)N(C)c3ccc(O)cc3)c3n1CCCC3)CCN(C(=O)c1ccccc1)C2 [Example 35, 3-{2-Benzoyl-7-[(3R)-3-methyl-1,2,3,4-tetrahydroisoquinoline-2-carbonyl]-1,2,3,4-tetrahydroisoquinolin-6-yl}-N-(4-hydroxyphenyl)-N-methyl-5,6,7,8-tetrahydroindolizine-1-carboxamide] | 4.7 nM | 8.5 nM |
| Cc1c(C(=O)N(C)c2ccccc2)cc(-c2cc3c(cc2C(=O)N2Cc4ccccc4C[C@H]2CN2CCOCC2)CN(C(=O)Oc2ccccc2)CC3)n1C [Example 115, Phenyl 6-{1,5-dimethyl-4-[methyl(phenyl)carbamoyl]-1H-pyrrol-2-yl}-7-[(3S)-3-(morpholin-4-ylmethyl)-1,2,3,4-tetrahydroisoquinoline-2-carbonyl]-1,2,3,4-tetrahydroisoquinoline-2-carboxylate] | 3.4 nM | 24 nM |
| CN(C(=O)c1cc(-c2cc3c(cc2C(=O)N2Cc4ccccc4C[C@H]2CN2CCOCC2)CN(C(=O)Oc2ccc(F)cc2)CC3)n2c1CCCC2)c1ccc(O)cc1 [Example 120, 4-Fluorophenyl 6-{1-[(4-hydroxyphenyl)(methyl)carbamoyl]-5,6,7,8-tetrahydroindolizin-3-yl}-7-[(3S)-3-(morpholin-4-ylmethyl)-1,2,3,4-tetrahydroisoquinoline-2-carbonyl]-1,2,3,4-tetrahydroisoquinoline-2-carboxylate] | 2.5 nM | 8.2 nM |
| Cc1ccc(OC(=O)N2CCc3cc(-c4cc(C(=O)N(C)c5ccccc5)c(C)n4C)c(C(=O)N4Cc5ccccc5C[C@H]4CN4CCOCC4)cc3C2)cc1 [Example 591, 4-Methylphenyl 6-{1,5-dimethyl-4-[methyl(phenyl)carbamoyl]-1H-pyrrol-2-yl}-7-[(3S)-3-(morpholin-4-ylmethyl)-1,2,3,4-tetrahydroisoquinoline-2-carbonyl]-1,2,3,4-tetrahydroisoquinoline-2-carboxylate] | 2.5 nM | 7 nM |
| CN(C(=O)c1cc(-c2cc3c(cc2C(=O)N2Cc4ccccc4C[C@H]2CN2CCOCC2)CN(C(=O)OCc2ccccc2)CC3)n2c1CCCC2)c1ccc(O)cc1 [Example 94, Benzyl 6-{1-[(4-hydroxyphenyl)(methyl)carbamoyl]-5,6,7,8-tetrahydroindolizin-3-yl}-7-[(3S)-3-(morpholin-4-ylmethyl)-1,2,3,4-tetrahydroisoquinoline-2-carbonyl]-1,2,3,4-tetrahydroisoquinoline-2-carboxylate] | 5.6 nM | 19 nM |
| Cc1c(C(=O)N(C)c2ccccc2)cc(-c2cc3c(cc2C(=O)N2Cc4ccccc4C[C@H]2CN2CCOCC2)CN(C(=O)Oc2ccc4[nH]ccc4c2)CC3)n1C [Example 631, 1H-Indol-5-yl 6-{1,5-dimethyl-4-[methyl(phenyl)carbamoyl]-1H-pyrrol-2-yl}-7-[(3S)-3-(morpholin-4-ylmethyl)-1,2,3,4-tetrahydroisoquinoline-2-carbonyl]-1,2,3,4-tetrahydroisoquinoline-2-carboxylate] | 5.2 nM | 8.2 nM |

Second part, led by results:

| IC50 (Bcl-2 protein) | Compound | IC50 [1] |
| --- | --- | --- |
| 5.9 nM | C[C@@H]1Cc2ccccc2CN1C(=O)c1cc2c(cc1-c1cc(C(=O)N(C)c3ccc(O)cc3)c3n1CCCC3)CN(C(=O)Nc1ccccc1)C2 [Example 60, 5-{1-[(4-Hydroxyphenyl)(methyl)carbamoyl]-5,6,7,8-tetrahydroindolizin-3-yl}-6-[(3R)-3-methyl-1,2,3,4-tetrahydroisoquinoline-2-carbonyl]-N-phenyl-2,3-dihydro-1H-isoindole-2-carboxamide] | 46 nM |
| 3.5 nM | Cc1c(C(=O)N(C)c2ccc(O)cc2)cc(-c2cc3c(cc2C(=O)N2Cc4ccccc4C[C@H]2CN2CCOCC2)CN(C(=O)Cc2ccccc2)CC3)n1C [Example 89, N-(4-Hydroxyphenyl)-N,1,2-trimethyl-5-{7-[(3S)-3-(morpholin-4-ylmethyl)-1,2,3,4-tetrahydroisoquinoline-2-carbonyl]-2-(2-phenylacetyl)-1,2,3,4-tetrahydroisoquinolin-6-yl}-1H-pyrrole-3-carboxamide] | 24 nM |
| 3.5 nM | Cc1ccc(OC(=O)N2Cc3cc(C(=O)N4Cc5ccccc5C[C@H]4C)c(-c4cc(C(=O)N(C)c5ccc(O)cc5)c(C)n4C)cc3C2)cc1 [Example 107, 4-Methylphenyl 5-{4-[(4-hydroxyphenyl)(methyl)carbamoyl]-1,5-dimethyl-1H-pyrrol-2-yl}-6-[(3R)-3-methyl-1,2,3,4-tetrahydroisoquinoline-2-carbonyl]-2,3-dihydro-1H-isoindole-2-carboxylate] | 6.9 nM |
| 14 nM | CCCCN(CCCC)C(=O)c1cc(-c2cc3c(cc2C(=O)N2Cc4ccccc4C[C@H]2C)CN(C(=O)Cc2ccccc2)CC3)n(C)c1C [Example 164, N,N-Dibutyl-1,2-dimethyl-5-{7-[(3R)-3-methyl-1,2,3,4-tetrahydroisoquinoline-2-carbonyl]-2-(2-phenylacetyl)-1,2,3,4-tetrahydroisoquinolin-6-yl}-1H-pyrrole-3-carboxamide] | > 150 nM |
| 5.1 nM | CN(C(=O)c1cc(-c2cc3c(cc2C(=O)N2Cc4ccccc4C[C@H]2CN2CCOCC2)CN(C(=O)Cc2ccccc2)CC3)n2c1CCCC2)c1ccc(O)cc1 [Example 70, N-(4-Hydroxyphenyl)-N-methyl-3-{7-[(3S)-3-(morpholin-4-ylmethyl)-1,2,3,4-tetrahydroisoquinoline-2-carbonyl]-2-(2-phenylacetyl)-1,2,3,4-tetrahydroisoquinolin-6-yl}-5,6,7,8-tetrahydroindolizine-1-carboxamide] | 9.8 nM |
| 4.9 nM | CCC(=O)N1CCc2cc(-c3cc(C(=O)N(C)c4ccc(O)cc4)c4n3CCCC4)c(C(=O)N3Cc4ccccc4C[C@H]3C)cc2C1 [Example 34, N-(4-Hydroxyphenyl)-N-methyl-3-{7-[(3R)-3-methyl-1,2,3,4-tetrahydroisoquinoline-2-carbonyl]-2-propanoyl-1,2,3,4-tetrahydroisoquinolin-6-yl}-5,6,7,8-tetrahydroindolizine-1-carboxamide] | 19 nM |
| 15 nM | C[C@@H]1Cc2ccccc2CN1C(=O)c1cc2c(cc1-c1cc(C(=O)N(C)c3ccc(O)cc3)c3n1CCCC3)CN(C(=O)Oc1ccccc1)C2 [Example 45, Phenyl 5-{1-[(4-hydroxyphenyl)(methyl)carbamoyl]-5,6,7,8-tetrahydroindolizin-3-yl}-6-[(3R)-3-methyl-1,2,3,4-tetrahydroisoquinoline-2-carbonyl]-2,3-dihydro-1H-isoindole-2-carboxylate] | 20 nM |
| 33 nM | C[C@@H]1Cc2ccccc2CN1C(=O)c1cc2c(cc1-c1cc(C(=O)N(C)c3ccc(O)cc3)c3n1CCCC3)CN(Cc1ccccc1)C2 [Example 33, 3-{2-Benzyl-6-[(3R)-3-methyl-1,2,3,4-tetrahydroisoquinoline-2-carbonyl]-2,3-dihydro-1H-isoindol-5-yl}-N-(4-hydroxyphenyl)-N-methyl-5,6,7,8-tetrahydroindolizine-1-carboxamide] | 460 nM |
